Test results published in patent publication US20210380930A1, “METHODS, APPARATUS AND KITS FOR BACTERIAL CELL LYSIS” (TECHNISCHE UNIVERSITÄT WIEN, priority 2018, published 2021).
Like-named read-outs stand apart in the source and are kept apart here.

System: Enterococcus faecalis type strain NCTC 775
Assay: Cell lysis experiments with ILs, released DNA quantified by ENT-qPCR
Format: cell-based

SMILES: CC(=O)[O-].CCn1cc[n+](C)c1 [[C2mim]OAc, 1-Ethyl-3-methylimidazollum acetate]
- 23S rRNA gene copies in 2.5 μl of the DNA extracts: ~6.48±0.02
- cell lysis efficiency with varying IL concentrations (IL from 90% (w/v) to 10% (w/v), same extraction procedure): almost steadily decreased with its respective concentration

SMILES: CCCCCC(=O)[O-].C[N+](C)(C)CCO [[Cho]Hex, Choline hexanoate]
- 23S rRNA gene copies in 2.5 μl of the DNA extracts: ~6.49±0.11
- cell lysis efficiency with varying IL concentrations: slightly improved towards a concentration of 50% (w/v), only decreasing with lower concentrations of 30% (w/v) and 10% (w/v)
